Consider 1 compound from US20130029998A1, “Method of Detecting and Profiling Progression of the Risk of Neurodegenerative Diseases” (priority 2010, published 2013).

The test system of assay [1] is Splotch homozygous (Sp−/−) embryos. The assay is described as follows: Rescue of neural tube defect in Pax3 mutant Splotch mouse model of spina bifida. It is filed as in vivo.
Assay [2] has the same test system. The assay is described as follows: H3K27me2, H3K27me3 and KDM6B staining of neural tube explants from folate-rescued Splotch homozygous embryos. The conditions noted are these: folate-rescued Sp−/− embryos E10.0 (30 somite), neural crest cells of neural tube explants, compared with wild-type. It is filed as in vivo, mouse. As for the experimental part: After 140 hours neural crest cells were allowed to differentiate in the absence of growth factor for 2 days. After differentiation, neural crest cells from wild-type and Sp−/− embryo explant cultures were stained with DAPI, H3K27me2, H3K27me3 and KDM6B antibodies (Abeam, Inc Cambridge, Mass. 02139-1517). DAPI, H3K27me2, H3K27me3 and KDM6B positive cells from five different explant cultures were counted and expressed as a percentage of DAPI positive cells. […] The protein loading control was ascertained with Ponseau S staining.

As to `Nc1nc2ncc(CNc3ccc(C(=O)N[C@@H](CCC(=O)O)C(=O)O)cc3)nc2c(=O)[nH]1` [Folic acid, folic acid], the neural tube defect entry in assay [1] is “rescue of neural tube defect”. In assay [2], the “H3K27me2 expression (positive cells as a percentage of DAPI positive cells)” value is listed as “reversal to near wild-type expression”, the “H3K27me3 expression (positive cells as a percentage of DAPI positive cells)” value is “reversal to near wild-type expression” and the “KDM6B expression (positive cells as a percentage of DAPI positive cells)” value was “reversal to near wild-type expression”. Further, the “H3K27me2 expression (positive cells as a percentage of DAPI positive cells)” value in assay [2] (listed as folic acid) was “reversal”.
